Source: publication PMC4773904 (The New England journal of medicine, 2015)

Columns and labels:
[1] = test system: Ba/F3 cells expressing EML4-ALK C1156Y–L1198F; test: Ba/F3 cell-survival assay; type: cell-based
[2] = test system: Ba/F3 cells expressing EML4-ALK L1198F; test: Ba/F3 cell-survival assay; type: cell-based
[3] = test system: metastatic ALK-rearranged NSCLC; test: Case report: treatment course of a patient with metastatic ALK-rearranged NSCLC; type: in vivo, human; conditions: first restaging CT after 5 weeks of treatment, phase 1 trial, single patient
[4] = test system: ALK; conditions: in cell lines; cited from earlier work
[5] = test system: previously treated NSCLC; conditions: patients with previously treated NSCLC, phase 3 trial; cited from earlier work

SMILES | Sensitivity in cell-survival assay (in words) [1] | Sensitivity in cell-survival assay (in words) [2] | Reduction in tumor burden [3] [%] | Potency against ALK [4] | Response rate [5] [%]
C[C@H]1Oc2cc(cnc2N)-c2c(nn(C)c2C#N)CN(C)C(=O)c2ccc(F)cc21 [lorlatinib, (10R)-7-amino-12-fluoro-2,10,16-trimethyl-15-oxo-10,15,16,17-tetrahydro-2H-8,4-(metheno)pyrazolo [4,3-h][2,5,11]-benzoxadiazacyclotetra decine-3-carbonitrile] | resistant | variable degrees of resistance | 41 | subnanomolar to low nanomolar | 
CCC1=C[C@@H]2CN(C1)Cc1c([nH]c3ccccc13)[C@@](C(=O)OC)(c1cc3c(cc1OC)N(C)[C@H]1[C@@](O)(C(=O)OC)[C@H](OC(C)=O)[C@]4(CC)C=CCN5CC[C@]31[C@@H]54)C2 [vinorelbine] |  |  |  |  | 0.8
